From US20170001990A1 (Genentech, Inc., priority 2014, published 2017)
Where “and” joins values, the source holds several entries; their conditions need not be identical. Identical values can stand only once.

Target: Human recombinant carboxy-terminal his-tagged LDHA (amino acids 2-332) (Homo sapiens, UniProt P00338)
Assay: LDHA enzyme inhibition assay (NADH fluorescence)
Settings: LDHA IC50 (μM), 1 nM LDHA, NADH and pyruvate, stereochemistry of tested sample given

An IC50 of 0.05 µM was found for O=C1CC(c2ccsc2)(c2ccc(N3CCOCC3)c(Oc3ccc(F)cc3)n2)NC(=O)C1Sc1ccccc1Cl (stereo not drawn) [Example 27, 3-(2-chlorophenyl)sulfanyl-6-[6-(4-fluorophenoxy)-5-morpholino-2-pyridyl]-6-(3-thienyl)piperidine-2,4-dione] in this work.

An IC50 of 0.031 µM was found for O=C1CC(c2ccc(OCCCO)cc2)(c2ccsc2)NC(=O)C1Sc1ccccc1Cl (stereo not drawn) [Example 28, 3-(2-chlorophenyl)sulfanyl-6-[4-(3-hydroxypropoxy)phenyl]-6-(3-thienyl)piperidine-2,4-dione] in this work.

An IC50 of 0.009 µM was found for O=C1CC(c2ccc(OCCO)cc2)(c2ccsc2)NC(=O)C1Sc1ccccc1Cl (stereo not drawn) [Example 29, 3-(2-chlorophenyl)sulfanyl-6-[4-(2-hydroxyethoxy)phenyl]-6-(3-thienyl)piperidine-2,4-dione] in this work.

An IC50 of 0.053 µM was found for COCCOc1ccc(C2(c3ccsc3)CC(=O)C(Sc3ccccc3Cl)C(=O)N2)cc1 (stereo not drawn) [Example 30, 3-(2-chlorophenyl)sulfanyl-6-[4-(2-methoxyethoxy)phenyl]-6-(3-thienyl)piperidine-2,4-dione] in this work.

An IC50 of 0.008 µM was found for COCCCOc1ccc(C2(c3ccsc3)CC(=O)C(Sc3ccccc3Cl)C(=O)N2)cc1 (stereo not drawn) [Example 31, 3-(2-chlorophenyl)sulfanyl-6-[4-(3-methoxypropoxy)phenyl]-6-(3-thienyl)piperidine-2,4-dione] in this work.

An IC50 of 0.01 µM was found for O=C1CC(c2ccsc2)(c2ccc3ccccc3c2)NC(=O)C1Sc1ccccc1Cl (stereo not drawn) [Example 32, 3-(2-chlorophenyl)sulfanyl-6-(2-naphthyl)-6-(3-thienyl)piperidine-2,4-dione] in this work.

An IC50 of 0.033 µM was found for CN1C(=O)C(Sc2ccccc2Cl)C(=O)CC1(c1ccsc1)c1cccc(NC2CCOCC2)c1 (stereo not drawn) [Example 34, 3-(2-chlorophenyl)sulfanyl-1-methyl-6-[3-(tetrahydropyran-4-ylamino)phenyl]-6-(3-thienyl)piperidine-2,4-dione] in this work.

An IC50 of 0.007 µM was found for O=C1CC(c2ccsc2)(c2ccc(N3CCOCC3)cc2O)NC(=O)C1Sc1ccccc1Cl (stereo not drawn) [Example 35, 3-(2-chlorophenyl)sulfanyl-6-(2-hydroxy-4-morpholino-phenyl)-6-(3-thienyl)piperidine-2,4-dione] in this work.

With O=C1CC(c2ccsc2)(c2ccccc2O)NC(=O)C1Sc1ccccc1Cl (stereo not drawn) [Example 36, 3-(2-chlorophenyl)sulfanyl-6-(2-hydroxyphenyl)-6-(3-thienyl)piperidine-2,4-dione] the IC50 was 0.021 µM and 0.008 µM and 0.025 µM.

An IC50 of 0.004 µM was found for O=C1CC(c2ccc(N3CCOCC3)cc2)(c2cccc(Br)n2)NC(=O)C1Sc1ccccc1Cl (stereo not drawn) [Example 38, 6-(6-bromopyridin-2-yl)-3-((2-chlorophenyl)thio)-6-(4-morpholinophenyl)piperidine-2,4-dione] in this work.

O=C1CC(c2ccc(N3CCOCC3)cc2)(c2cccc(Nc3ccc(F)cc3)n2)NC(=O)C1Sc1ccccc1Cl (stereo not drawn) [Example 39, 3-((2-chlorophenyl)thio)-6-(6-((4-fluorophenyl)amino)pyridin-2-yl)-6-(4-morpholinophenyl)piperidine-2,4-dione] was tested, and the IC50 was 0.003 µM and 0.012 µM.

An IC50 of 0.036 µM was found for O=C1CC(c2ccc(N3CCOCC3)cc2)(c2cccc(Oc3ccc(F)c(F)c3)n2)NC(=O)C1Sc1ccccc1Cl (stereo not drawn) [Example 40, 3-(2-chlorophenyl)sulfanyl-6-[6-(3,4-difluorophenoxy)-2-pyridyl]6-(4-morpholinophenyl)piperidine-2,4-dione] in this work.

An IC50 of 0.016 µM was found for O=C1CC(c2ccc(N3CCOCC3)cc2)(c2cccc(OC3CCCCC3)n2)NC(=O)C1Sc1ccccc1Cl (stereo not drawn) [Example 41, 3-((2-chlorophenyl)thio)-6-(6-(cyclohexyloxy)pyridin-2-yl)-6-(4-morpholinophenyl)piperidine-2,4-dione] in this work.

With O=C1CC(c2ccc(N3CCOCC3)cc2)(c2cscn2)NC(=O)C1Sc1ccccc1Cl (stereo not drawn) [Example 42, 3-((2-chlorophenyl)thio)-6-(4-morpholinophenyl)-6-(thiazol-4-yl) piperidine-2,4-dione] the IC50 was 0.005 µM and 0.01 µM and 0.017 µM.

An IC50 of 0.017 µM was found for O=C1CC(c2ccc(N3CCCCC3)cc2)(c2ccsc2)NC(=O)C1Sc1cc(O)ccc1Cl (stereo not drawn) [Example 43] in this work.

An IC50 of 0.069 µM was found for O=C1CC(c2ccc(N3CC4(COC4)C3)cc2)(c2ccsc2)NC(=O)C1Sc1ccccc1Cl (stereo not drawn) [Example 45, 3-(2-chlorophenyl) sulfanyl-6-[4-(2-oxa-6-azaspiro[3.3]heptan-6-yl)phenyl]-6-(3-thienyl)piperidine-2,4-dione] in this work.

An IC50 of 0.005 µM was found for O=C1CC(c2ccsc2)(c2cccc(Oc3ccccn3)n2)NC(=O)C1Sc1ccccc1Cl (stereo not drawn) [Example 46, 3-(2-chlorophenyl) sulfanyl-6-[6-(2-pyridyloxy)-2-pyridyl]-6-(3-thienyl)piperidine-2,4-dione] in this work.

An IC50 of 0.052 µM was found for O=C1CC(c2ccsc2)(c2cccc(OC3CCCC3)n2)NC(=O)C1Sc1ccccc1Cl (stereo not drawn) [Example 48, 3-((2-chlorophenyi)lliio)-6-(6-(cyclopentyloxy)pyridin-2-yl)-6-(thiophen-3-yl)piperidine-2 .4-dione] in this work.

An IC50 of 0.025 µM was found for O=C1CC(c2ccsc2)(c2cccc(OC3CCOC3)n2)NC(=O)C1Sc1ccccc1Cl (stereo not drawn) [Example 49, 3-((2-chlorophenyl)thio)-6-(6-((tetrahydrofuran-3-yl)oxy)pyridin-2-yl)-6-(thiophen-3-yl) piperidine-2,4-dione] in this work.

An IC50 of 0.022 µM was found for O=C1CC(c2ccsc2)(c2cccc(Oc3ccc(F)cc3F)n2)NC(=O)C1Sc1ccccc1Cl (stereo not drawn) [Example 50, 3-(2-chlorophenyl) sulfanyl-6-[6-(2,4-difluorophenoxy)-2-pyridyl]-6-(3-thienyl)piperidine-2,4-dione] in this work.

An IC50 of 0.149 µM was found for Cc1cc(Oc2cccc(C3(c4ccsc4)CC(=O)C(Sc4ccccc4Cl)C(=O)N3)n2)ccc1F (stereo not drawn) [Example 51, 5-((2-chlorophenyl)thio)-6′-(4-fluoro-3-methyl-phenoxy)-4-hydroxy-2-(thiophen-3-yl)-2,3-dihydro-[2,2′-bipyridin]-6(1H)-one] in this work.

An IC50 of 0.045 µM was found for O=C1CC(c2ccsc2)(c2cccc(Oc3ccccc3F)n2)NC(=O)C1Sc1ccccc1Cl (stereo not drawn) [Example 52, 3-(2-chlorophenyl)sulfanyl-6-[6-(2-fluorophenoxy)-2-pyridyl]-6-(3-thienyl)piperidine-2,4-dione] in this work.

An IC50 of 0.011 µM was found for O=C1CC(c2ccsc2)(c2cccc(Oc3cccc(F)c3F)n2)NC(=O)C1Sc1ccccc1Cl (stereo not drawn) [Example 53, 3-(2-chlorophenyl)sulfanyl-6-[6-(2,3-difluoro-phenoxy)-2-pyridyl]-6-(3-thienyl)piperidine-2,4-dione] in this work.

An IC50 of 0.201 µM was found for O=C1CC(c2ccsc2)(c2cccc(Oc3cncnc3)n2)NC(=O)C1Sc1ccccc1Cl (stereo not drawn) [Example 54, 3-(2-chlorophenyl)sulfanyl-6-(6-pyrimidin-5-yloxy-2-pyridyl)-6-(3-thienyl)piperidine-2,4-dione] in this work.

An IC50 of 0.01 µM was found for O=C1CC(c2ccsc2)(c2cccc(Oc3ccc(Cl)cc3)n2)NC(=O)C1Sc1ccccc1Cl (stereo not drawn) [Example 58, 6′-(4-chlorophenoxy)-5-((2-chlorophenyl)thio)-4-hydroxy-2-(thiophen-3-yl)-2,3-dihydro-[2,2′-bipyridin]-6(1H)-one] in this work.

An IC50 of 0.056 µM was found for COc1ccc(Oc2cccc(C3(c4ccsc4)CC(=O)C(Sc4ccccc4Cl)C(=O)N3)n2)cc1 (stereo not drawn) [Example 59, 3-(2-chlorophenyl)sulfanyl-6-[6-(4-methoxyphenoxy)-2-pyridyl]-6-(3-thienyl) piperidine-2,4-dione] in this work.

An IC50 of 0.009 µM was found for O=C1CC(c2ccsc2)(c2cccc(Oc3ccc4c(c3)CCC4)n2)NC(=O)C1Sc1ccccc1Cl (stereo not drawn) [Example 60, 5-((2-chlorophenyl)thio)-6′-((2,3-dihydro-1H-inden-5-yl)oxy)-4-hydroxy-2-(thiophen-3-yl)-2,3-dihydro-[2,2′-bipyridin]-6(1H)-one] in this work.

An IC50 of 0.02 µM was found for COc1ccccc1Oc1cccc(C2(c3ccsc3)CC(=O)C(Sc3ccccc3Cl)C(=O)N2)n1 (stereo not drawn) [Example 61, 3-(2-chlorophenyl)sulfanyl-6-[6-(2-methoxyphenoxy)-2-pyridyl]-6-(3-thienyl) piperidine-2,4-dione] in this work.

An IC50 of 0.036 µM was found for O=C1CC(c2ccsc2)(c2cccc(Oc3cc(F)cc(F)c3)n2)NC(=O)C1Sc1ccccc1Cl (stereo not drawn) [Example 62, 3-(2-chlorophenyl)sulfanyl-6-[6-(3,5-difluoro-phenoxy)-2-pyridyl]-6-(3-thienyl)piperidine-2,4-dione] in this work.

An IC50 of 0.037 µM was found for O=C1CC(c2ccsc2)(c2cccc(Oc3cccc(Cl)c3)n2)NC(=O)C1Sc1ccccc1Cl (stereo not drawn) [Example 63, 6′-(3-chlorophenoxy)-5-((2-chlorophenyl)thio)-4-hydroxy-2-(thiophen-3-yl)-2,3-dihydro-[2,2′-bipyridin]-6(1H)-one] in this work.

An IC50 of 0.126 µM was found for COc1cccc(Oc2cccc(C3(c4ccsc4)CC(=O)C(Sc4ccccc4Cl)C(=O)N3)n2)c1 (stereo not drawn) [Example 64, 3-(2-chlorophenyl)sulfanyl-6-[6-(3-methoxyphenoxy)-2-pyridyl]-6-(3-thienyl) piperidine-2,4-dione] in this work.

An IC50 of 0.089 µM was found for CCC1CN(c2ccc(C3(c4ccsc4)CC(=O)C(Sc4ccccc4Cl)C(=O)N3)cc2)CCO1 (stereo not drawn) [Example 66, 3-(2-chlorophenyl)sulfanyl-6-[4-(2-ethylmorpholin-4-yl)phenyl]-6-(3-thienyl) piperidine-2,4-dione] in this work.

An IC50 of 0.008 µM was found for O=C1CC(c2ccsc2)(c2cccc(OCc3ccccc3)n2)NC(=O)C1Sc1ccccc1Cl (stereo not drawn) [Example 68, 6′-(benzyloxy)-5-((2-chlorophenyl)thio)-4-hydroxy-2-(thiophen-3-yl)-2,3-dihydro-[2,2′-bipyridin]-6(1H)-one] in this work.

An IC50 of 0.056 µM was found for O=C1CC(c2ccsc2)(c2cccc(Oc3cccnc3)n2)NC(=O)C1Sc1ccccc1Cl (stereo not drawn) [Example 71, 3-((2-chlorophenyl)thio)-6-(6-(pyridin-3-yloxy)pyridin-2-yl)-6-(thiophen-3-yl)piperidine-2,4-dione] in this work.

An IC50 of 0.025 µM was found for O=C1CC(c2ccc(N3CCC(F)(F)CC3)cc2)(c2ccsc2)NC(=O)C1Sc1ccccc1Cl (stereo not drawn) [Example 72, 3-(2-chlorophenyl)sulfanyl-6-[4-(4,4-difluoro-1-piperidyl)phenyl]-6-(3-thienyl)piperidine-2,4-dione] in this work.

An IC50 of 0.111 µM was found for CC(C)Oc1nc(C2(c3ccsc3)CC(=O)C(Sc3ccccc3Cl)C(=O)N2)ccc1N1CCOCC1 (stereo not drawn) [Example 73, 3-((2-chlorophenyl)thio)-6-(6-isopropoxy-5-morpholinopyridin-2-yl)-6-(thiophen-3-yl) piperidine-2,4-dione] in this work.
